Measurements from PMC3038857, “Using Nuclear Receptor Activity to Stratify Hepatocarcinogens” (PLoS ONE, 2011).

How the values were obtained:
Type in all cases: cell-based
CYP1A2 = assay: CLZD_CYP1A2: Change in expression of CYP1A2 (primary human hepatocytes); conditions: 24 hr, scale not given, looks like -log10 of molar active concentration, 0 = no activity
In short: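 Chemicals are tested in human hepatocyte primary cultures over 0.004-40 µM (5 concentrations) for 6, 24 or 48 hr, and concentration- and time-dependent transcript changes are read by quantitative nuclease protection assay.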

ERa (ESR1) = target: T1, ERa (ESR1) (Homo sapiens, UniProt P03372); assay: NCGC_ERalpha_Antagonist: GAL4 BLAM Reporter gene assay: ERa; conditions: antagonist mode; scale not given, looks like -log10 of molar active concentration; 0 = no activity
T1 construct: expressed in transfected cells; host or cells: HEK293

[1] = target: T2, PPARG (peroxisome proliferator-activated receptor gamma) (Homo sapiens, UniProt P37231); assay: ATG_PPARg_TRANS: Factorial reporter gene assay (HepG2); conditions: HepG2; scale not given, looks like -log10 of molar active concentration; 0 = no activity
T2 construct: expressed in transfected cells; host or cells: HepG2
T2 sequence (P37231 1-505): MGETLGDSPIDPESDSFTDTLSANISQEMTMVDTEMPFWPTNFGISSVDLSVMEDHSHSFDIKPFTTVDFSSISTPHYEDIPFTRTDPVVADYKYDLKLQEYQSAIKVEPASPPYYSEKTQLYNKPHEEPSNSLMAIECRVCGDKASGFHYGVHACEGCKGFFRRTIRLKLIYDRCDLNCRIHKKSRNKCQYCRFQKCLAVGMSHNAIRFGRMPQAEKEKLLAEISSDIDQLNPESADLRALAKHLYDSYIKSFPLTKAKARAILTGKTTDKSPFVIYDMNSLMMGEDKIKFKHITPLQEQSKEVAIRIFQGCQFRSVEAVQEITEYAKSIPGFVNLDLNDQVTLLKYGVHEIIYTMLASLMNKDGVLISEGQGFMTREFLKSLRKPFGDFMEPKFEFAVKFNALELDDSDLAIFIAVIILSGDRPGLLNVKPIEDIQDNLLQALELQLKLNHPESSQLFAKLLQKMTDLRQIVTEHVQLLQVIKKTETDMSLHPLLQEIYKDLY
In short: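 Compounds at seven concentrations (top at MTC, threefold serial) were applied to transfected HepG2 hepatoma cells, with PXRE scored by cis-element reporters and ERRg, FXR and PPARg scored by trans one-hybrid nuclear receptor reporters.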

[2] = target: T3, ESR1 (estrogen receptor 1) (Homo sapiens, UniProt P03372); assay: ATG_ERE_CIS: Factorial reporter gene assay (HepG2); conditions: HepG2; scale not given, looks like -log10 of molar active concentration; 0 = no activity
T3 construct: expressed in transfected cells; host or cells: HepG2
In short: (§1)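 HepG2 cells transfected with multiplexed reporter libraries: cis-acting binding-site reporters (CIS) and a one-hybrid nuclear-receptor trans system (TRANS). Chemicals tested at seven concentrations, starting at the maximum tolerated concentration with three-fold serial dilutions.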

CYP3A4 = assay: CLZD_CYP3A4: Change in expression of CYP3A4 (primary human hepatocytes); conditions: 24 hr, scale not given, looks like -log10 of molar active concentration, 0 = no activity
In short: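 Primary human hepatocytes exposed to 5 concentrations (0.004-40 µM) for 6, 24 or 48 hr; transcript levels measured by multiplexed quantitative nuclease protection assay. Markers of nuclear receptor pathways: CYP1A1 (AhR), CYP2B6 and ABCB1 (CAR), CYP3A4 (PXR).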

[3] = target: T4, AHR (aryl hydrocarbon receptor) (Homo sapiens, UniProt P35869); assay: ATG_Ahr_CIS: Factorial reporter gene assay (multiplexed transcription reporter, HepG2); set-up: scale not given here; conditions: HepG2; scale not given, looks like -log10 of molar active concentration; 0 = no activity
T4 construct: endogenous in cells; host or cells: HepG2
T4 sequence (P35869 11-848): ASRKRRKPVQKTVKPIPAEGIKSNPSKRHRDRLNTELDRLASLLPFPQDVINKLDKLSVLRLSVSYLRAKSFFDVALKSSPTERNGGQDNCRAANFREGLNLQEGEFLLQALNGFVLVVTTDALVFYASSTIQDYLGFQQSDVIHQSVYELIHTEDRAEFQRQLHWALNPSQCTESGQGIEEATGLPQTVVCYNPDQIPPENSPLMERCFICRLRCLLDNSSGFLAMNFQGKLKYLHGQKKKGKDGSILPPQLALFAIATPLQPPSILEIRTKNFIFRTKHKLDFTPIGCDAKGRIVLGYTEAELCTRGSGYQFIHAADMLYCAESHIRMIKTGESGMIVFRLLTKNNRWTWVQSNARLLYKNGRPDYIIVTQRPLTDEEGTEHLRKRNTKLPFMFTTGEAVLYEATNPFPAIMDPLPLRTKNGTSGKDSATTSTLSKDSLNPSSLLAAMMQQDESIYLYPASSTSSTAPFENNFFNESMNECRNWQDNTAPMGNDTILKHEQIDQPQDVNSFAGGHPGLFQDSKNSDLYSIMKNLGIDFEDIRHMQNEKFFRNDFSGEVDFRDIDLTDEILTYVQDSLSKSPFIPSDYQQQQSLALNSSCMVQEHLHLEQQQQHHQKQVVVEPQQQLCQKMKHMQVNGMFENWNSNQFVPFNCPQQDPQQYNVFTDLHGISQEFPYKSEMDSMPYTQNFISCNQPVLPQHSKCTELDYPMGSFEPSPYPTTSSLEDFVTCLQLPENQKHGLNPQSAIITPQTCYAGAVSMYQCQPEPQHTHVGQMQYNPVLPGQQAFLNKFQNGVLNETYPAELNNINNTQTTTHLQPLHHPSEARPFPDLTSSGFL
In short: as §1

T3 sequence (P03372 whole entry): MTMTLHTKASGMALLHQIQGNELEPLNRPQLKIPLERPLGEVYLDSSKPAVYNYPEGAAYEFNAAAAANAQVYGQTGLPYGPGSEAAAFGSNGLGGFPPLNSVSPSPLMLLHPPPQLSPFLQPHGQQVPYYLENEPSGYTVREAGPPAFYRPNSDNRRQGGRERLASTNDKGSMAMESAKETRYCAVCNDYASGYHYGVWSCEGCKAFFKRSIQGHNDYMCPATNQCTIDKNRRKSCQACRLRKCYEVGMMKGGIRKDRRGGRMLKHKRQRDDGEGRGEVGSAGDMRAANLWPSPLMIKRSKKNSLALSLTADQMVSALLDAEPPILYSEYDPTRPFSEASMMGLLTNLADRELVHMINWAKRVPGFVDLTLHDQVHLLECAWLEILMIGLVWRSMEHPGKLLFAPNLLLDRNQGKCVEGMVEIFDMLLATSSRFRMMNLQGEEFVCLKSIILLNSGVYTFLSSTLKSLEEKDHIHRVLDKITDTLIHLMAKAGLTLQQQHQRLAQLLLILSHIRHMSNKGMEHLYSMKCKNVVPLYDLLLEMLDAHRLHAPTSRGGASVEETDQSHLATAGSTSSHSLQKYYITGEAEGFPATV
T1 sequence (P03372 whole entry, the tested form may be a part): as the sequence (P03372 whole entry) above

Structure (SMILES) | CLZD_CYP1A2_24 (CYP1A2) | NCGC_ERalpha_Antagonist (ERa (ESR1)) | ATG_PPARg_TRANS [1] | ATG_ERE_CIS [2] | CLZD_CYP3A4_24 (CYP3A4) | ATG_Ahr_CIS [3]
CCC(C)n1c(=O)[nH]c(C)c(Br)c1=O (stereo not drawn) [r43] | 4.966 | 0 | 0 | 0 | 5.055 | 0
N#Cc1cc(Br)c(O)c(Br)c1 [r44] | 0 | 0 | 4.398 | 0 | 0 | 4.319
CC(C)N1C(=O)N(c2ccccc2)CS/C1=N\C(C)(C)C [r45] | 0 | 0 | 0 | 0 | 4.966 | 0
CCCCOCN(C(=O)CCl)c1c(CC)cccc1CC [r46] | 0 | 0 | 5.678 | 0 | 0 | 0
CCC(C)Nc1c([N+](=O)[O-])cc(C(C)(C)C)cc1[N+](=O)[O-] (stereo not drawn) [r48] | 0 | 0 | 4.523 | 0 | 5.288 | 0
CCSC(=O)N(CC(C)C)CC(C)C [r49] | 0 | 0 | 0 | 0 | 0 | 0
O=C1C2CC=CCC2C(=O)N1SC(Cl)(Cl)Cl (stereo not drawn) [r51] | 0 | 0 | 0 | 0 | 0 | 0
CC1=C(C(=O)Nc2ccccc2)SCCO1 [r53] | 4.782 | 0 | 4.119 | 0 | 5.078 | 0
CCOC(=O)C(Cl)Cc1cc(-n2nc(C)n(C(F)F)c2=O)c(F)cc1Cl (stereo not drawn) [r54] | 0 | 0 | 4.319 | 0 | 4.919 | 0
Nc1cnn(-c2ccccc2)c(=O)c1Cl [r56] | 4.955 | 0 | 4.409 | 0 | 0 | 4.444
COc1cc(Cl)c(OC)cc1Cl [r57] | 0 | 0 | 0 | 0 | 0 | 0
N#Cc1c(Cl)c(Cl)c(Cl)c(C#N)c1Cl [r58] | 0 | 0 | 0 | 0 | 0 | 0
CC(C)OC(=O)Nc1cccc(Cl)c1 [r59] | 5.159 | 0 | 4.301 | 0 | 4.864 | 0
COc1nc(C)nc(NC(=O)NS(=O)(=O)c2ccccc2Cl)n1 [r62] | 0 | 0 | 0 | 0 | 0 | 0
COc1nc(C)nc(NC(=O)NS(=O)(=O)c2ccccc2Cl)n1 [r63] | 0 | 0 | 0 | 0 | 0 | 0
